Assay: Two-week Functional Observational Battery (FOB)
Assay type: in vivo, rats
Experimental: The results shown in Table 2 indicate that D-P is the safe compound. During the two weeks, we checked the animals' fur, response to handling, etc. […] We also made sure to observe the animals continuously for 4 hours after each treatment. We mainly focused on any negative changes in the animal's mental behavior, autonomous activity, hair, glandular secretion, feces, death, etc. We found no notable changes with these evaluations.

[1] = female rats, 1 mg/kg oral daily, day0
[2] = female rats, 1 mg/kg oral daily, day3
[3] = female rats, 1 mg/kg oral daily, day5
[4] = female rats, 1 mg/kg oral daily, day8
[5] = female rats, 1 mg/kg oral daily, day10
[6] = female rats, 1 mg/kg oral daily, day12
[7] = female rats, 1 mg/kg oral daily, day14
[8] = female rats, 10 mg/kg oral daily, day0
[9] = female rats, 10 mg/kg oral daily, day3
[10] = female rats, 10 mg/kg oral daily, day5
[11] = female rats, 10 mg/kg oral daily, day8
[12] = female rats, 10 mg/kg oral daily, day10
[13] = female rats, 10 mg/kg oral daily, day12
[14] = female rats, 10 mg/kg oral daily, day14
[15] = female rats, 100 mg/kg oral daily, day0
[16] = female rats, 100 mg/kg oral daily, day3
[17] = female rats, 100 mg/kg oral daily, day5
[18] = female rats, 100 mg/kg oral daily, day8
[19] = female rats, 100 mg/kg oral daily, day10
[20] = female rats, 100 mg/kg oral daily, day12
[21] = female rats, 100 mg/kg oral daily, day14
[22] = male rats, 1 mg/kg oral daily, day0
[23] = male rats, 1 mg/kg oral daily, day3
[24] = male rats, 1 mg/kg oral daily, day5
[25] = male rats, 1 mg/kg oral daily, day8
[26] = male rats, 1 mg/kg oral daily, day10
[27] = male rats, 1 mg/kg oral daily, day12
[28] = male rats, 1 mg/kg oral daily, day14
[29] = male rats, 10 mg/kg oral daily, day0
[30] = male rats, 10 mg/kg oral daily, day3
[31] = male rats, 10 mg/kg oral daily, day5
[32] = male rats, 10 mg/kg oral daily, day8
[33] = male rats, 10 mg/kg oral daily, day10
[34] = male rats, 10 mg/kg oral daily, day12
[35] = male rats, 10 mg/kg oral daily, day14
[36] = male rats, 100 mg/kg oral daily, day0
[37] = male rats, 100 mg/kg oral daily, day3
[38] = male rats, 100 mg/kg oral daily, day5
[39] = male rats, 100 mg/kg oral daily, day8
[40] = male rats, 100 mg/kg oral daily, day10
[41] = male rats, 100 mg/kg oral daily, day12
[42] = male rats, 100 mg/kg oral daily, day14
[43] = rats, oral daily 1, 10 and 100 mg/kg, two weeks

piperidin-1-ium (2R,3R)-2-(3,4-dihydroxy-5-oxidophenyl)-3,5-dihydroxy-4-oxochroman-7-olate [D-P]
Breath (B) [1]: 85 ± 0.5 per minute
Pulse (P) [1]: 366 ± 1.0 beats/minute
Temperature (T) [1]: 36.5 ± 0.4 °C
Breath (B) [2]: 85 ± 0.5 per minute
Pulse (P) [2]: 366 ± 0.4 beats/minute
Temperature (T) [2]: 36.5 ± 0.3 °C
Breath (B) [3]: 85 ± 0.4 per minute
Pulse (P) [3]: 366 ± 1.3 beats/minute
Temperature (T) [3]: 36.5 ± 1.1 °C
Breath (B) [4]: 85 ± 0.5 per minute
Pulse (P) [4]: 366 ± 4.1 beats/minute
Temperature (T) [4]: 36.5 ± 1.2 °C
Breath (B) [5]: 85 ± 0.5 per minute
Pulse (P) [5]: 366 ± 1.0 beats/minute
Temperature (T) [5]: 36.5 ± 0.4 °C
Breath (B) [6]: 85 ± 0.5 per minute
Pulse (P) [6]: 366 ± 7.4 beats/minute
Temperature (T) [6]: 36.5 ± 0.3 °C
Breath (B) [7]: 85 ± 0.4 per minute
Pulse (P) [7]: 366 ± 6.3 beats/minute
Temperature (T) [7]: 36.5 ± 1.1 °C
Breath (B) [8]: 86 ± 0.6 per minute
Pulse (P) [8]: 367 ± 0.5 beats/minute
Temperature (T) [8]: 36.3 ± 0.6 °C
Breath (B) [9]: 86 ± 0.5 per minute
Pulse (P) [9]: 371 ± 2.2 beats/minute
Temperature (T) [9]: 36.3 ± 0.7 °C
Breath (B) [10]: 86 ± 0.5 per minute
Pulse (P) [10]: 369 ± 6.8 beats/minute
Temperature (T) [10]: 36.3 ± 1.0 °C
Breath (B) [11]: 86 ± 0.5 per minute
Pulse (P) [11]: 368 ± 6.1 beats/minute
Temperature (T) [11]: 36.3 ± 1.2 °C
Breath (B) [12]: 86 ± 0.6 per minute
Pulse (P) [12]: 366 ± 6.5 beats/minute
Temperature (T) [12]: 36.3 ± 0.6 °C
Breath (B) [13]: 86 ± 0.5 per minute
Pulse (P) [13]: 367 ± 9.2 beats/minute
Temperature (T) [13]: 36.3 ± 0.7 °C
Breath (B) [14]: 86 ± 0.5 per minute
Pulse (P) [14]: 372 ± 6.8 beats/minute
Temperature (T) [14]: 36.3 ± 1.0 °C
Breath (B) [15]: 85 ± 0.6 per minute
Pulse (P) [15]: 366 ± 9.5 beats/minute
Temperature (T) [15]: 36.2 ± 0.7 °C
Breath (B) [16]: 85 ± 0.4 per minute
Pulse (P) [16]: 364 ± 0.5 beats/minute
Temperature (T) [16]: 36.2 ± 0.7 °C
Breath (B) [17]: 85 ± 0.8 per minute
Pulse (P) [17]: 371 ± 1.5 beats/minute
Temperature (T) [17]: 36.2 ± 0.7 °C
Breath (B) [18]: 85 ± 0.6 per minute
Pulse (P) [18]: 367 ± 1.5 beats/minute
Temperature (T) [18]: 36.2 ± 0.9 °C
Breath (B) [19]: 85 ± 0.6 per minute
Pulse (P) [19]: 369 ± 9.5 beats/minute
Temperature (T) [19]: 36.2 ± 0.7 °C
Breath (B) [20]: 85 ± 0.4 per minute
Pulse (P) [20]: 373 ± 6.5 beats/minute
Temperature (T) [20]: 36.2 ± 0.7 °C
Breath (B) [21]: 85 ± 0.8 per minute
Pulse (P) [21]: 371 ± 4.5 beats/minute
Temperature (T) [21]: 36.2 ± 0.7 °C
Breath (B) [22]: 84 ± 0.3 per minute
Pulse (P) [22]: 367 ± 2.1 beats/minute
Temperature (T) [22]: 36.1 ± 0.3 °C
Breath (B) [23]: 85 ± 0.4 per minute
Pulse (P) [23]: 366 ± 2.5 beats/minute
Temperature (T) [23]: 36.4 ± 0.7 °C
Breath (B) [24]: 85 ± 0.5 per minute
Pulse (P) [24]: 366 ± 1.5 beats/minute
Temperature (T) [24]: 36.5 ± 0.5 °C
Breath (B) [25]: 85 ± 0.5 per minute
Pulse (P) [25]: 366 ± 1.3 beats/minute
Temperature (T) [25]: 36.4 ± 1.0 °C
Breath (B) [26]: 85 ± 0.3 per minute
Pulse (P) [26]: 366 ± 0.2 beats/minute
Temperature (T) [26]: 36.5 ± 0.3 °C
Breath (B) [27]: 85 ± 0.5 per minute
Pulse (P) [27]: 366 ± 1.5 beats/minute
Temperature (T) [27]: 36.5 ± 0.5 °C
Breath (B) [28]: 85 ± 0.5 per minute
Pulse (P) [28]: 366 ± 1.5 beats/minute
Temperature (T) [28]: 36.5 ± 0.5 °C
Breath (B) [29]: 86 ± 0.2 per minute
Pulse (P) [29]: 366 ± 5.2 beats/minute
Temperature (T) [29]: 36.5 ± 0.5 °C
Breath (B) [30]: 86 ± 0.6 per minute
Pulse (P) [30]: 370 ± 0.5 beats/minute
Temperature (T) [30]: 36.4 ± 0.6 °C
Breath (B) [31]: 86 ± 0.5 per minute
Pulse (P) [31]: 374 ± 0.5 beats/minute
Temperature (T) [31]: 36.5 ± 0.5 °C
Breath (B) [32]: 86 ± 0.5 per minute
Pulse (P) [32]: 370 ± 1.9 beats/minute
Temperature (T) [32]: 36.4 ± 1.1 °C
Breath (B) [33]: 86 ± 0.2 per minute
Pulse (P) [33]: 372 ± 6.2 beats/minute
Temperature (T) [33]: 36.5 ± 0.5 °C
Breath (B) [34]: 86 ± 0.5 per minute
Pulse (P) [34]: 373 ± 4.5 beats/minute
Temperature (T) [34]: 36.5 ± 0.5 °C
Breath (B) [35]: 86 ± 0.5 per minute
Pulse (P) [35]: 371 ± 7.5 beats/minute
Temperature (T) [35]: 36.5 ± 0.5 °C
Breath (B) [36]: 86 ± 0.5 per minute
Pulse (P) [36]: 371 ± 0.6 beats/minute
Temperature (T) [36]: 36.4 ± 1.0 °C
Breath (B) [37]: 86 ± 0.3 per minute
Pulse (P) [37]: 365 ± 8.1 beats/minute
Temperature (T) [37]: 36.3 ± 0.7 °C
Breath (B) [38]: 86 ± 0.3 per minute
Pulse (P) [38]: 367 ± 0.9 beats/minute
Temperature (T) [38]: 36.4 ± 0.8 °C
Breath (B) [39]: 86 ± 0.5 per minute
Pulse (P) [39]: 365 ± 9.5 beats/minute
Temperature (T) [39]: 36.3 ± 1.5 °C
Breath (B) [40]: 86 ± 0.5 per minute
Pulse (P) [40]: 368 ± 8.7 beats/minute
Temperature (T) [40]: 36.4 ± 1.0 °C
Breath (B) [41]: 86 ± 0.3 per minute
Pulse (P) [41]: 371 ± 5.9 beats/minute
Temperature (T) [41]: 36.4 ± 0.8 °C
Breath (B) [42]: 86 ± 0.3 per minute
Pulse (P) [42]: 369 ± 5.9 beats/minute
Temperature (T) [42]: 36.4 ± 0.8 °C
FOB overall observation [43]: did not find any notable negative changes
deaths or injuries [43]: No deaths or injuries

— patent US12194021B2, “Modified herbal compositions for neuromodulation” (University of Southern California, priority 2021, dated 2025)
